Activity calls are given as the source filed them. The calls are words filed in the database; no cut-off is given here.

The target of series [1] is T1, Lethal factor (Bacillus anthracis) (UniProt P15917).
T1 sequence (whole entry): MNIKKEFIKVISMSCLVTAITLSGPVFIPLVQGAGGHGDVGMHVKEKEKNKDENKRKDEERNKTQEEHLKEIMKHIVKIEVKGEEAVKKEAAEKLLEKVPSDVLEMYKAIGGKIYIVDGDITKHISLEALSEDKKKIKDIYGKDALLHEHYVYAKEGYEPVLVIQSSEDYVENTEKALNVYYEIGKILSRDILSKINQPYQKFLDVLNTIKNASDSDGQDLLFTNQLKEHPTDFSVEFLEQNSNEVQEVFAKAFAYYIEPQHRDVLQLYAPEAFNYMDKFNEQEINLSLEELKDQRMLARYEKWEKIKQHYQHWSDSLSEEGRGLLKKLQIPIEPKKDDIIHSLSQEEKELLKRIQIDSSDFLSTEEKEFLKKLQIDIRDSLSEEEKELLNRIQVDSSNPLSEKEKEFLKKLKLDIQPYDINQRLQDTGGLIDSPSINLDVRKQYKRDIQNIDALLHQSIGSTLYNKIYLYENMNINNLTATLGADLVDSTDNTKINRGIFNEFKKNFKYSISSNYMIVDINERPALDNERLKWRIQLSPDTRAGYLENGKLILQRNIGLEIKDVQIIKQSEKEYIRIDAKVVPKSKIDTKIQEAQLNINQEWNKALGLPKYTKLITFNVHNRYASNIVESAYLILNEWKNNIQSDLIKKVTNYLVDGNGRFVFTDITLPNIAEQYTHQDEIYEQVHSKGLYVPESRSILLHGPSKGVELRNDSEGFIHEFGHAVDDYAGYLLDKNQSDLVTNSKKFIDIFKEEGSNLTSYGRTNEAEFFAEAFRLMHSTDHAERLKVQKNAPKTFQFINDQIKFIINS
Briefly: Protection against Bacillus anthracis lethal toxin-mediated cytotoxicity in mouse RAW264.7 cells assessed as change in viability at 0.125 to 12.5 uM relative to toxin-treated control. The class given is cell-based.

In series [2] the test system is Rattus norvegicus. Briefly: Protection against Bacillus anthracis lethal toxin-mediated intoxication in Fischer 344 rat assessed as time to death at 5.4 mg/kg administered through cannula. It counts as functional.
Series [3] deals with Diphtheria toxin (Corynebacterium diphtheriae) (UniProt Q5PY51). As to the kind of experiment: Protection against diphtheria toxin-mediated cytotoxicity in CHOK1 cells assessed as cell viability after 48 hrs by WST1 dye reduction assay. The class given is cell-based. As to conditions: CHO-K1. For orientation: Formazan colour is commonly taken as a measure of viable cells.
For series [4], the target named is T2, Calmodulin-sensitive adenylate cyclase (Bacillus anthracis) (UniProt P40136).
T2 sequence (whole entry): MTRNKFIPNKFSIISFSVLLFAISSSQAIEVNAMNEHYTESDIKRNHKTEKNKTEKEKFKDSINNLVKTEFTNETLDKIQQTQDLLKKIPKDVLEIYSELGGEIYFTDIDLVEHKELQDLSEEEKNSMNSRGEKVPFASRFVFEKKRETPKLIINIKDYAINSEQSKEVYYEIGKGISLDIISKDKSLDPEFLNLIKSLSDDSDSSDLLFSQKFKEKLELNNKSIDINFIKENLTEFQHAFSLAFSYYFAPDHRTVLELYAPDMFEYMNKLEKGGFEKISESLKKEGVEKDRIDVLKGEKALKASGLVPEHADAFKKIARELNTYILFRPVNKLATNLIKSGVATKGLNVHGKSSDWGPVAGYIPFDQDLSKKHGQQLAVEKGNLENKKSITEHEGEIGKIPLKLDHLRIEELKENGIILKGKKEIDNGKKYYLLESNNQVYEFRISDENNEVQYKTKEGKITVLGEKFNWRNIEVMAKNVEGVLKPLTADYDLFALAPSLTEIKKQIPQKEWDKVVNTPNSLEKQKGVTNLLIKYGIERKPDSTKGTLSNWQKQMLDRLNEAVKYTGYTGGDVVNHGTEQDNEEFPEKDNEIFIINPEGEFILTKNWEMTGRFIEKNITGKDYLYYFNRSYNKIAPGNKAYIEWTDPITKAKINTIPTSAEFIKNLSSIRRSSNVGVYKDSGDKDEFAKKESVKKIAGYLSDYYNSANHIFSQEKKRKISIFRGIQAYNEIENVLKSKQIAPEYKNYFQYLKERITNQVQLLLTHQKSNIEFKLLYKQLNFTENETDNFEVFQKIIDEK
Briefly: Inhibition of Bacillus anthracis edema toxin-mediated intoxication in CHOK1 cells assessed as cAMP levels after 4 hrs by HTRF assay. To be noted: CHO-K1. It counts as cell-based. A general note: Changes in cAMP serve as a functional read-out for many G protein-coupled receptors.

Series [5] deals with Rattus norvegicus. Briefly: Toxicity in Bacillus anthracis lethal toxin-mediated intoxicated Fischer 344 rat assessed as adverse side effects administered through cannula. It counts as organism-based. To be noted: in vivo, other.
Series [6] concerns Rattus norvegicus. Briefly: Protection against Bacillus anthracis lethal toxin-mediated intoxication in Fischer 344 rat assessed as time to death at 54 mg/kg administered through cannula. It counts as functional.
The next series deals with Serum. As to the kind of experiment: Drug level in human serum. It counts as ADME, cell-free. To be noted: read-out: Drug uptake.
The target of series [7] is Protective antigen (Bacillus anthracis) (UniProt P13423). As to the kind of experiment: Inhibition of Bacillus anthracis protective antigen binding to cell surface of mouse RAW264.7 cells at 12.5 uM after 2 hrs by flow cytometry. The class given is cell-based.
Series [8] shares this target. Briefly: Inhibition of Bacillus anthracis protective antigen pore formation in mouse RAW264.7 cells at 12.5 uM after 2 hrs. The class given is cell-based.
For a further series, the system named is CHO-K1. Briefly: Inhibition of cholera toxin-mediated intoxication in CHOK1 cells assessed as cAMP levels after 4 hrs by HTRF assay. It counts as cell-based. As to conditions: Vibrio cholerae.
In the next series the test system is Plasmodium falciparum. Briefly: Antimalarial activity against Plasmodium falciparum. It counts as functional, organism-based.

Protective antigen (Bacillus anthracis), sequence (P13423 whole entry): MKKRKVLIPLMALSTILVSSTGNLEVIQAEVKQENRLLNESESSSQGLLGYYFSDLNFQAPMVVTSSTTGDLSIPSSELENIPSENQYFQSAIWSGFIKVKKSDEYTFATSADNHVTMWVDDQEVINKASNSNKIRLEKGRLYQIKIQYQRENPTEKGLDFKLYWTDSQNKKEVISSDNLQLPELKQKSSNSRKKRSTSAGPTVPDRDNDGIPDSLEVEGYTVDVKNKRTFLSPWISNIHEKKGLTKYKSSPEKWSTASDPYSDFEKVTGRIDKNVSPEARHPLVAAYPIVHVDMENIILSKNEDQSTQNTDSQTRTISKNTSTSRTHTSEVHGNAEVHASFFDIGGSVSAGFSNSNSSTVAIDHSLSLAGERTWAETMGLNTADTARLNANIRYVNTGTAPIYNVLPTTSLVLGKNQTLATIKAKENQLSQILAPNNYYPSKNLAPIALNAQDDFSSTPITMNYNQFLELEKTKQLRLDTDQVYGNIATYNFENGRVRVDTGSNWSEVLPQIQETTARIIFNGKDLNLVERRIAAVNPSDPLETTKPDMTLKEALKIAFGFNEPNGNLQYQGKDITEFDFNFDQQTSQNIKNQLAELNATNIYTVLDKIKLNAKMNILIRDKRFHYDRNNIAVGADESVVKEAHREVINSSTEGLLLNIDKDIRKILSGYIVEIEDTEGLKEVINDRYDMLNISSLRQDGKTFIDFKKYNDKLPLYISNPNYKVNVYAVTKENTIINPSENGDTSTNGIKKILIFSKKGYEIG
Diphtheria toxin (Corynebacterium diphtheriae), sequence (Q5PY51 as listed by the source): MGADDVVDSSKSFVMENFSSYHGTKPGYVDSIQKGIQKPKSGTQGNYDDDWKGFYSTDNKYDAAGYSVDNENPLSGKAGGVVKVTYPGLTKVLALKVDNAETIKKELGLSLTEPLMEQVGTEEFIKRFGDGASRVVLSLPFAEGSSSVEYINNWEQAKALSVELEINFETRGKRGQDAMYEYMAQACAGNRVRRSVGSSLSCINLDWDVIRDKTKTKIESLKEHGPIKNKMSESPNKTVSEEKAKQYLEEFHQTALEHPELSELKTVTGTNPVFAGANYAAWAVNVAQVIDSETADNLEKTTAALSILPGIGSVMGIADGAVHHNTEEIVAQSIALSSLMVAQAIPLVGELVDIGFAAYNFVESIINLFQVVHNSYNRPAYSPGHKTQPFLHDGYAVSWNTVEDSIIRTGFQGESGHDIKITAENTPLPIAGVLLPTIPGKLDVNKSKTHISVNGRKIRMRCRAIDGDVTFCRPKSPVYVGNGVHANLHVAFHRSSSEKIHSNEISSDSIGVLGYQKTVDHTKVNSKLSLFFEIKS

In the case of `C1CCC(/N=C(\NC23CC4CC(CC(C4)C2)C3)N2CCOCC2)CC1`, the fold change (FC) in [1] stood at 3.9. The same measure, in the same setting: for `CC1(C)CCC(C)(C)c2cc(C(=O)Nc3ccc(C(=O)O)cc3)ccc21` the value was 3.9; for `CC1(C)Oc2ccc(C#N)cc2[C@@H](OC2=CC(=O)CC2)[C@@H]1O`, 3.

Turning to `CC1=C(/C=C/C(C)=C/C=C/C(C)=C/C(=O)O)C(C)(C)CCC1`, in series [1], the fold change (FC) was determined as 3. Still for that read-out and setting: for `CC1=C(/C=C/C(C)=C/C=C/C(C)=C\C(=O)O)C(C)(C)CCC1` the value was 3.2. As for `CC1=C(/C=C/C(C)=C\C=C\C(C)=C\C(=O)O)C(C)(C)CCC1`, the fold change (FC) in series [1] is 2.6. In the case of `CCCCCCCCCCCCCCCCOC[C@@H](COP(=O)([O-])OCC[N+](C)(C)C)OC(C)=O`, the fold change (FC) in series [1] is 3.2. Still for that read-out and setting: in the case of `CCCNCC(O)COc1ccccc1C(=O)CCc1ccccc1` (centres undefined) it was 3.1; in that of `COc1ccc(S(=O)(=O)N(CCO)c2ccccc2CN(C)C/C=C/c2ccc(Cl)cc2)cc1`, 6.3. Same read-out and setting: for `N=C(NC(=O)c1nc(Cl)c(N)nc1N)Nc1ccccc1` the value was 2.8; for `N[C@@H](COP(=O)(O)O)C(=O)O`, 2.8.

Turning to `O=S(=O)(NCCNC/C=C/c1ccc(Br)cc1)c1cccc2cnccc12`, the fold change (FC) in series [1] turned out to be 2.9.

Take `O=c1[nH]c2cc(C(F)(F)F)ccc2n1-c1cc(C(F)(F)F)ccc1O`: the fold change (FC) in series [1] came to 2.8. Turning to `CCCCc1oc2ccccc2c1C(=O)c1cc(I)c(OCCN(CC)CC)c(I)c1` [AMIODARONE], the Activity in the series on Rattus norvegicus [2] is given as 64.8 min; in the series with Rattus norvegicus [5], “Non-toxic”; with Rattus norvegicus [6] it was 82.6 min. Also, the result in series [3], in series [4] and in series [8] was Active. Besides, the concentration in the series on Serum is 3.75 µM. The outcome (in series [7]; in the series with CHO-K1) was inactive. As a reminder, the IC50 is the midpoint of a concentration-inhibition curve. The low end stands for greater potency in that assay, the high end for weaker potency in that assay. Consider `CC(C)COCC(CN(Cc1ccccc1)c1ccccc1)N1CCCC1` (centres undefined) [BEPRIDIL], for which the result in series [3], in series [4] and in series [8] was Active. In addition, the concentration in the series with Serum was 6.8 µM. 2500 nM corresponded to half-maximal inhibition in the series on Plasmodium falciparum (IC50). Moreover, the outcome (in series [7]; in the series on CHO-K1) was inactive.

Source of the values: ChEMBL document CHEMBL1157366 (Antimicrob Agents Chemother, 2007).
